Earlier results as cited in US20070281881A1, “Methods And Compositions Comprising Non-Peptide Small Molecules That Solubilize Beta Amyloid Peptide Fiber” (priority 2004, published 2007).

Key:
Aβ = Aβ (Homo sapiens, UniProt P05067); conditions: result in words, from cited studies
[1] = result in words, from cited studies

Sequence of Aβ (P05067 672-713 limits assumed): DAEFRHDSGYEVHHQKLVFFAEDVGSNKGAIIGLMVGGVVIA

SMILES: CN1CCCC1c1cccnc1 (stereo not drawn) [nicotine]
- binding to Aβ and effect on Aβ aggregation (Aβ): binds and slows down Aβ aggregation

SMILES: COc1ccc2[nH]cc(CCNC(C)=O)c2c1 [Melatonin]
- crossing of the blood brain barrier [1]: easily crosses the blood brain barrier
- binding to Aβ and effect on Aβ aggregation (Aβ): binds and slows down Aβ aggregation
